Assay results taken from ChEMBL document CHEMBL5505960, “Synthesis and evaluation of butylphthalide-scutellarein hybrids as multifunctional agents for the treatment of Alzheimer's disease” (Eur J Med Chem, 2024).
Calls of active or inactive are those of the source. The rule behind the calls is not given here.

What was measured:
[1] = Antioxidant activity assessed as trolox equivalent of ORAC radical scavenging activity by ORAC-FL assay relative to trolox; assay type: functional
[2] = target: Amyloid-beta precursor protein (Homo sapiens) (UniProt P05067); assay: Inhibition of amyloid beta (1 to 42) (unknown origin) self induced aggregation at 25 uM by ThT fluorescence assay relative to control
Sequence of Amyloid-beta precursor protein (Homo sapiens) (P05067 whole entry): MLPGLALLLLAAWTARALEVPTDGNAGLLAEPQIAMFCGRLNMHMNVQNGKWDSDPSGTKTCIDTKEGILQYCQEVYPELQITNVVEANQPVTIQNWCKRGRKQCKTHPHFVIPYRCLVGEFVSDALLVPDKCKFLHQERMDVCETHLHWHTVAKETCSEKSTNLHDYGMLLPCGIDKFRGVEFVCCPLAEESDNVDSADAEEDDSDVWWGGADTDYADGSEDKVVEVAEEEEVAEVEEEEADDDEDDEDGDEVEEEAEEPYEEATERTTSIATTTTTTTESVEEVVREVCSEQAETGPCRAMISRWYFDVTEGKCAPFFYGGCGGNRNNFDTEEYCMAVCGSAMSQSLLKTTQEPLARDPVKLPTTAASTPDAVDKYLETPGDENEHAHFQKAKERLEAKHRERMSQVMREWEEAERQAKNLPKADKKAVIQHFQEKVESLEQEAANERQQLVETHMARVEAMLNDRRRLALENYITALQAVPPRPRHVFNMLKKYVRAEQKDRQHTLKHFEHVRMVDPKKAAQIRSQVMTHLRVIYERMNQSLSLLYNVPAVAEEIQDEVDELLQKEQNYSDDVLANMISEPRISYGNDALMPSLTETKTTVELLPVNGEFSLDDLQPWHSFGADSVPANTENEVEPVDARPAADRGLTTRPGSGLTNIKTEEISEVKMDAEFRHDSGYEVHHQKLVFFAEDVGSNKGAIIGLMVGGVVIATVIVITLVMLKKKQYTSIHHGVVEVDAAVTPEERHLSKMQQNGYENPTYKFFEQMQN

[3] = target: Amyloid-beta precursor protein (Homo sapiens) (UniProt P05067); assay: Inhibition of Cu2+ induced amyloid beta (1 to 42)(unknown origin) fibrillation at 25 uM by ThT fluorescence assay relative to control
[4] = target: Amyloid-beta precursor protein (Homo sapiens) (UniProt P05067); assay: Disaggregation of self-induced amyloid beta (1 to 42) (unknown origin) fibrils at 25 uM by ThT fluorescence assay relative to control
[5] = test system: HT-22; assay: Neuroprotective activity against amyloid beta (1 to 42)-induced cell injury in mouse HT-22 cells assessed as reversal of reduction in cell numbers at 2.5 to 10 uM measured after 24 hrs by MTT assay; assay type: functional, cell-based; conditions: dose 2.5-10 µM
[6] = test system: HT-22; assay: Neuroprotective activity against amyloid beta (1 to 42)-induced injury in mouse HT-22 cells assessed as increase in cell viability at 2.5 uM incubated for 24 hrs by MTT assay relative to control; assay type: functional
[7] = test system: HT-22; assay: Neuroprotective activity against amyloid beta (1 to 42)-induced injury in mouse HT-22 cells assessed as inhibition of ROS accumulation measured after 24 hrs by DCFH-DA staining based fluorescence microscopy analysis; assay type: functional, cell-based; conditions: dose 2.5-10 µM
[8] = test system: PC-12; assay: Cytotoxicity against rat PC12 cells at 25 uM measured after 24 hrs by MTT assay; assay type: functional, cell-based
[9] = test system: PC-12; assay: Neuroprotective activity against H2O2 induced rat PC12 cells assessed as increase in cell viability at 1 uM measured after 24 hrs by MTT assay relative to control; assay type: functional
[10] = test system: BV-2; assay: Antineuroinflammatory activity in LPS-induced mouse BV-2 cells assessed as inhibition of ROS production at 10 uM preincubated for 30 mins followed by LPS stimulation and measured after 8 hrs by DCFH-DA staining based analysis; assay type: functional, cell-based; conditions: time 8.5 hrs
[11] = test system: BV-2; assay: Antineuroinflammatory activity in LPS-induced mouse BV-2 cells assessed as inhibition of ROS production preincubated for 30 mins followed by LPS stimulation and measured after 8 hrs by DCFH-DA staining based analysis; assay type: functional, cell-based; conditions: dose 2.5-10 µM, time 8.5 hrs
[12] = test system: BV-2; assay: Antineuroinflammatory activity in LPS-induced mouse BV-2 cells assessed as inhibition of NO release at 2.5 uM preincubated for 30 mins followed by LPS stimulation and measured after 24 hrs relative to control; assay type: functional; parameters: scale not given: the % may be the effect or the level left; conditions: time 24.5 hrs
[13] = test system: BV-2; assay: Antineuroinflammatory activity in LPS-induced mouse BV-2 cells assessed as inhibition of NO release at 10 uM preincubated for 30 mins followed by LPS stimulation and measured after 24 hrs relative to control; assay type: functional; parameters: scale not given: the % may be the effect or the level left; conditions: time 24.5 hrs
[14] = test system: BV-2; assay: Antineuroinflammatory activity in LPS-induced mouse BV-2 cells assessed as inhibition of TNF-alpha release at 0.5 uM preincubated for 30 mins followed by LPS stimulation and measured after 24 hrs relative to control; assay type: functional; parameters: scale not given: the % may be the effect or the level left; conditions: time 24.5 hrs
[15] = test system: BV-2; assay: Antineuroinflammatory activity in LPS-induced mouse BV-2 cells assessed as inhibition of TNF-alpha release at 2.5 uM preincubated for 30 mins followed by LPS stimulation and measured after 24 hrs relative to control; assay type: functional; parameters: scale not given: the % may be the effect or the level left; conditions: time 24.5 hrs
[16] = test system: BV-2; assay: Antineuroinflammatory activity in LPS-induced mouse BV-2 cells assessed as inhibition of IL-1 beta release at 0.5 uM preincubated for 30 mins followed by LPS stimulation and measured after 24 hrs relative to control; assay type: functional; parameters: scale not given: the % may be the effect or the level left; conditions: time 24.5 hrs
[17] = test system: BV-2; assay: Antineuroinflammatory activity in LPS-induced mouse BV-2 cells assessed as inhibition of IL-1 beta release at 10 uM preincubated for 30 mins followed by LPS stimulation and measured after 24 hrs relative to control; assay type: functional; parameters: scale not given: the % may be the effect or the level left; conditions: time 24.5 hrs
[18] = test system: BV-2; assay: Antineuroinflammatory activity in LPS-induced mouse BV-2 cells assessed as inhibition of TNF-alpha release preincubated for 30 mins followed by LPS stimulation and measured after 24 hrs; assay type: functional, cell-based; conditions: dose 0.5-10 µM, time 24.5 hrs
[19] = Half life in Balb/C mouse plasma at 30 mg/kg, IG measured upto 8 hrs by LC-MS analysis; assay type: ADME, organism-based; conditions: po
[20] = AUC (0 to t) in Balb/C mouse plasma at 30 mg/kg, IG measured upto 8 hrs by LC-MS analysis; assay type: ADME, organism-based; conditions: po
[21] = AUC (0 to t) in Balb/C mouse brain at 30 mg/kg, IG measured upto 8 hrs by LC-MS analysis; assay type: ADME, organism-based; conditions: in vivo, po
[22] = Ratio of AUC (0 to t) in Balb/C mouse brain at 30 mg/kg, IG measured upto 8 hrs by LC-MS analysis; assay type: ADME, organism-based; conditions: po
[23] = test system: Mus musculus; assay: Neuroprotective activity in C57BL/6 mouse assessed as amelioration of sodium nitrite induced memory impairement at 1.1 to 9.9 mg/kg, IG administered daily for 7 days; assay type: functional, organism-based; conditions: dose 1.1-9.9 mg/kg, time 7.0 day
[24] = test system: Mus musculus; assay: Neuroprotective activity in Sodium nitrite induced cognition impairement in C57BL/6 mouse model assessed as improvement in step-down latency time at 1.1 to 9.9 mg/kg, IG administered daily for 7 days; assay type: functional, organism-based; conditions: dose 1.1-9.9 mg/kg, time 7.0 day
[25] = test system: Mus musculus; assay: Neuroprotective activity in Sodium nitrite induced cognition impairement in C57BL/6 mouse model assessed as decrease in MAD level administered daily as IG for 7 days; assay type: functional, organism-based; conditions: dose 1.1-9.9 mg/kg, time 7.0 day
[26] = test system: Mus musculus; assay: Neuroprotective activity in Sodium nitrite induced cognition impairement in C57BL/6 mouse model assessed as decrease in MAD level at 9.9 mg/kg, IG administered daily for 7 days; assay type: functional; conditions: time 7 day
[27] = test system: Mus musculus; assay: Neuroprotective activity in Sodium nitrite induced cognition impairement in C57BL/6 mouse model assessed as increase in SOD activity administered daily as IG for 7 days; assay type: functional, organism-based; conditions: dose 1.1-9.9 mg/kg, time 7.0 day
[28] = test system: Mus musculus; assay: Neuroprotective activity in Sodium nitrite induced cognition impairement in C57BL/6 mouse model assessed as increase in SOD activity at 9.9 mg/kg, IG administered daily for 7 days; assay type: functional; conditions: time 7 day
[29] = test system: Mus musculus; assay: Neuroprotective activity in Sodium nitrite induced cognition impairement in C57BL/6 mouse model assessed as increase in SOD activity at 5.0 mg/kg, IG administered daily for 7 days; assay type: functional, organism-based; conditions: time 7.0 day
[30] = test system: Mus musculus; assay: Neuroprotective activity in Sodium nitrite induced cognition impairement in C57BL/6 mouse model assessed as decrease in MAD activity at 5.0 mg/kg, IG administered daily for 7 days; assay type: functional, organism-based; conditions: time 7.0 day
[31] = test system: Mus musculus; assay: Neuroprotective activity against Abeta42 induced cognition impairement in AD mouse model assessed as alleviation of learning deficit administered daily as IG for 7 days by passive avoidance test; assay type: functional, organism-based; conditions: time 7.0 day
[32] = target: Amyloid-beta precursor protein (Homo sapiens) (UniProt P05067); assay: Inhibition of amyloid beta (1 to 42) (unknown origin) fibrillation assessed as reversal of A-beta 1-42 induced morphological changes at 25 uM measured after 24 hrs by TEM analysis
[33] = target: Amyloid-beta precursor protein (Homo sapiens) (UniProt P05067); assay: Inhibition of amyloid beta (1 to 42) (unknown origin) fibrillation assessed as short amyloid beta fibrils at 25 uM measured after 24 hrs by TEM analysis
[34] = Metal chelating activity assessed as compound-Fe2+ complex formation by measuring hyperchromic shift in the presence of FeSO4 by UV-Visible spectrophotometric analysis
[35] = Metal chelating activity assessed as compound-Al3+ complex formation by measuring hyperchromic shift in the presence of AlCl3 by UV-Visible spectrophotometric analysis

Molecule `CCCCCC1OC(=O)c2c1cc(OC)c(O)c2O` (stereo not given) has an Activity [1] of 2.2, an inhibition [2] of 90.2% and an inhibition [3] of 35.4%. The Activity [4] was 42.5%, the Activity [5] was “Active” and the Activity [6] was 76.3%. The Activity [7] was “Dose-Dependent Effect”, the Activity [8] was “inactive” and the Activity [9] was 68.1%. For the same molecule, the Activity [10] was “Active”, the Activity [11] was “Dose-Dependent Effect” and the Activity [12] was 47%. It also gave an Activity [13] of 77.3%, an Activity [14] of 20% and an Activity [15] of 40.1%. For the same molecule, the Activity [16] was 36.6%, the Activity [17] was 62.9% and the Activity [18] was “Dose-Dependent Effect”. The half-life [19] was 51 min, the AUC(0-t) at 8 h [20] was 852 ng·h/mL and the AUCt [21] was 681.3 ng·h/g. For the same molecule, the Kp at 8 h [22] was 0.8, the Activity [23] was “Active” and the Activity [24] was “Active”. The Activity [25] was “Dose-Dependent Effect”, the Activity [26] was 2.8 nmol/mg and the Activity [27] was “Dose-Dependent Effect”. For the same molecule, the Activity [28] was 193.1 U/mg, the Activity [29] was “inactive” and the Activity [30] was “inactive”. For the same molecule, the Activity [31] was “Dose-Dependent Effect”, the inhibition [32] was “Active” and the inhibition [33] was “Active”. For the same molecule, the Activity [34] was “Active” and the Activity [35] was “Active”.
